Assays:
HEK293T cells = format: cell-based, human; conditions: inhibitor 10 μm; for effect on AAV2 transduction of HEK293T cells: same conditions
Description: (§1) AAV transduction and pharmacological inhibition. The 32D and 32D-EGFR cells were transduced with 1.0E4 genomic particle (gp)/cell with each of the AAV serotypes tested. Cells were analyzed for GFP expression by FACS analysis at 96 hours posttransduction. The HEK293T, HN12 and HEp-2 cells, shown to be permissive to AAV2 and/or AAV6, were used to evaluate the specific role of EGFR in AAV-mediated transduction. Cells were incubated at 37° C. in the presence or absence of AG1478 (10 μm) or gefitnib (10 μm) for 30 minutes prior to addition of AAV. AAV2 and AAV6 containing the CMV-NLS-eGFP construct were added at a concentration of 1.0×10^4 gp/ml for 90 minutes.

HN12 cells = assay: AAV transduction and pharmacological inhibition in HN12 cells; format: cell-based
Description: (§2) In vitro transduction of HEp-2 and HN12 cells with AAV2 and AAV6 in the presence or absence of the EGFR inhibitor, AG1478, was studied. […] Transduction of HN12 cells in the presence of AG1478 was reduced by 77% (***p<0.0005, n=3).
as §1
(§3) Increased expression of EGFR correlates with aggressive head and neck squamous cell carcinoma (HNSCC) tumor growth and resistance to treatment (Thariat, J., et al., Int. J. Clin. Oncol., 12: 99-110 (2007)). The utility of AAV6 to transduce and ablate specific HNSCCs presenting with elevated EGFR expression was assessed by gene-directed enzyme prodrug therapy. Two HNSCC cell lines, HN12 and HEp-2 were selected to represent polarities of EGFR expression.

HEp-2 cells = assay: AAV transduction and pharmacological inhibition in HEp-2 cells; format: cell-based
Description: as §2, §1, §3

| Molecule | effect on AAV2 transduction of HEK293T cells (HEK293T cells) | reduction of AAV6 transduction of HN12 cells (HN12 cells; in the presence of AG1478 (10 μm), FACS 96 hours) [%] | effect on AAV2-mediated transduction of HN12 cells (HN12 cells; presence or absence of AG1478) | inhibition of AAV6 transduction of HEK293T cells (HEK293T cells; 30 minutes preincubation, AAV6-CMV-eGFP, FACS 48 hours) [%] | effect on AAV6 transduction of HEp-2 cells (HEp-2 cells; in the presence of AG1478) | effect on AAV2-mediated transduction of HEp-2 cells (HEp-2 cells; presence or absence of AG1478) |
| --- | --- | --- | --- | --- | --- | --- |
| COc1cc2ncnc(Nc3ccc(F)c(Cl)c3)c2cc1OCCCN1CCOCC1 [gefitinib] | unchanged |  |  |  |  |  |
| AG1478 | unchanged | 77 | no significant (NS) difference | 50 | not altered | no significant (NS) difference |

Source: patent US9439979B2, “Epidermal growth factor receptor (EGFR) and methods of use in adenoviral-associated virus type 6 (AAV6) transduction” (priority 2010, dated 2016)
